In patent US12325703B2, “Fused ring compound as FGFR and VEGFR dual inhibitor” (CGENETECH (SUZHOU, CHINA) CO., LTD., priority 2019, dated 2025) one finds IC50 data, which are given here for 46 molecules.

Counter-ions that a name gives are not always drawn.

The test system of assay [1] is human gastric cancer SNU-16 cells expressing FGFR2. The experiment in a line: Cell activity (proliferation) test of gastric cancer cell line SNU-16, CellTiter-Glo. The note with it: inhibition of proliferation. Type of assay: cell-based. Here is the method:
To test the inhibitory effect of the compounds on the proliferation of human gastric cancer SNU-16 cells expressing FGFR2.
The compounds used in the test were subjected to 3-fold concentration dilution, the concentration starting from 10 μM and subjected to […], resulting in 9 concentrations: 10 μM, 2.50 μM, 0.62 μM, 0.156 μM, 39.1 nM, 9.8 nM, 2.4 nM, 0.61 nM, and 0.15 nM.
(1) Promega CellTiter-Glo luminescent cell viability assay kit (Promega-G7573).
(2) 2104 EnVision multi-tag reader, PerkinElmer.
The inhibition rate of different doses of the compounds would be calculated in the Excel file, and the IC50 data was obtained by parametric curve fitting (GraphPad Software).
Background: Cellular ATP, detected with luciferase, serves as a proxy for viable cell number.

Another assay addresses T1, human FGFR2 (Homo sapiens, UniProt P21802).
T1 construct: purchased Invitrogen PV3368
The experiment in a line: 33P isotope-labeled kinase activity test (Reaction Biology Corp), FGFR2. In kind it is biochemical. The note with it: 33P-ATP 5 μM, kinase 0.45 nM, 120 min room temperature. Here is the method: (§1) The IC50 value was determined using ^33P isotope-labeled kinase activity test (Reaction Biology Corp) to evaluate the inhibitory ability of the compounds to be tested on human FGFR1, FGFR2 and VEGFR2.
(§2) Buffer conditions: 20 mM Hepes (pH 7.5), 10 mM MgCl2, 1 mM EGTA, 0.02% Brij35, 0.02 mg/mL BSA, 0.1 mM Na3VO4, 2 mM DTT, 1% DMSO.
(§3) Test steps: At room temperature, the compounds to be tested were dissolved in DMSO to prepare a 10 mM solution for use. The substrate was dissolved in the newly-prepared buffer, and the kinase to be tested was added thereto and mixed well. The DMSO solution in which the compounds to be tested were dissolved was added to the above-mentioned homogeneous reaction solution using acoustic technology (Echo 550). […] After incubating for 15 minutes, to the reaction solution was added ^33P-ATP (activity: 0.01 μCi/μL, with corresponding concentration listed in Table 10) to start the reaction. […] The kinase activity data was expressed by comparing the kinase activity of the groups containing the compounds to be tested with that of the blank group (containing only DMSO). The IC50 value was obtained by curve fitting using Prism4 software (GraphPad), and the experimental results were shown in Table 11.

A further assay deals with T2, human VEGFR2 (Homo sapiens, UniProt P35968).
T2 construct: purchased Invitrogen PR5992C
The experiment in a line: 33P isotope-labeled kinase activity test (Reaction Biology Corp), VEGFR2. In kind it is biochemical. The note with it: 33P-ATP 20 μM, kinase 1 nM, 120 min room temperature. Here is the method:
as §1, §2, §3

T1 sequence (P21802 22-821): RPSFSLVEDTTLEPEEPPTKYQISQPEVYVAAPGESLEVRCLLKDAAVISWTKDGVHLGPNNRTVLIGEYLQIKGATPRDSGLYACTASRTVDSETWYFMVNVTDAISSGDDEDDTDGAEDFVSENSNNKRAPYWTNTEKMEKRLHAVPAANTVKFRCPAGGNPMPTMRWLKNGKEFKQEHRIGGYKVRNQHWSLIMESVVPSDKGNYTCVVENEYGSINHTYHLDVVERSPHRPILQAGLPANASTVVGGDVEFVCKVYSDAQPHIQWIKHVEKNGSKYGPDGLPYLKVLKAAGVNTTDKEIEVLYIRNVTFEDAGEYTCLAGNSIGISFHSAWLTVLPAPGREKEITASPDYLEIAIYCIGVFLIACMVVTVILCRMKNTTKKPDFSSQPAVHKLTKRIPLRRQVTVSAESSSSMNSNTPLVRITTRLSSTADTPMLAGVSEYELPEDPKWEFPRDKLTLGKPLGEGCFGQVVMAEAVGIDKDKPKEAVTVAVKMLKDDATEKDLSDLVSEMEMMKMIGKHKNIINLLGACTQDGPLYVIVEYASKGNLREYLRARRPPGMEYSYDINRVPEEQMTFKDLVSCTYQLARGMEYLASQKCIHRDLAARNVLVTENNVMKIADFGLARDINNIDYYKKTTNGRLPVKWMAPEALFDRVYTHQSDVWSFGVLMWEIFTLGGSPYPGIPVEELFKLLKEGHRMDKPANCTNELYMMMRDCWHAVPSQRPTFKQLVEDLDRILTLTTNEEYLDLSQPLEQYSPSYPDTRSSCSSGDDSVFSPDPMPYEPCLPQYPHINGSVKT
T2 sequence (P35968 20-1356): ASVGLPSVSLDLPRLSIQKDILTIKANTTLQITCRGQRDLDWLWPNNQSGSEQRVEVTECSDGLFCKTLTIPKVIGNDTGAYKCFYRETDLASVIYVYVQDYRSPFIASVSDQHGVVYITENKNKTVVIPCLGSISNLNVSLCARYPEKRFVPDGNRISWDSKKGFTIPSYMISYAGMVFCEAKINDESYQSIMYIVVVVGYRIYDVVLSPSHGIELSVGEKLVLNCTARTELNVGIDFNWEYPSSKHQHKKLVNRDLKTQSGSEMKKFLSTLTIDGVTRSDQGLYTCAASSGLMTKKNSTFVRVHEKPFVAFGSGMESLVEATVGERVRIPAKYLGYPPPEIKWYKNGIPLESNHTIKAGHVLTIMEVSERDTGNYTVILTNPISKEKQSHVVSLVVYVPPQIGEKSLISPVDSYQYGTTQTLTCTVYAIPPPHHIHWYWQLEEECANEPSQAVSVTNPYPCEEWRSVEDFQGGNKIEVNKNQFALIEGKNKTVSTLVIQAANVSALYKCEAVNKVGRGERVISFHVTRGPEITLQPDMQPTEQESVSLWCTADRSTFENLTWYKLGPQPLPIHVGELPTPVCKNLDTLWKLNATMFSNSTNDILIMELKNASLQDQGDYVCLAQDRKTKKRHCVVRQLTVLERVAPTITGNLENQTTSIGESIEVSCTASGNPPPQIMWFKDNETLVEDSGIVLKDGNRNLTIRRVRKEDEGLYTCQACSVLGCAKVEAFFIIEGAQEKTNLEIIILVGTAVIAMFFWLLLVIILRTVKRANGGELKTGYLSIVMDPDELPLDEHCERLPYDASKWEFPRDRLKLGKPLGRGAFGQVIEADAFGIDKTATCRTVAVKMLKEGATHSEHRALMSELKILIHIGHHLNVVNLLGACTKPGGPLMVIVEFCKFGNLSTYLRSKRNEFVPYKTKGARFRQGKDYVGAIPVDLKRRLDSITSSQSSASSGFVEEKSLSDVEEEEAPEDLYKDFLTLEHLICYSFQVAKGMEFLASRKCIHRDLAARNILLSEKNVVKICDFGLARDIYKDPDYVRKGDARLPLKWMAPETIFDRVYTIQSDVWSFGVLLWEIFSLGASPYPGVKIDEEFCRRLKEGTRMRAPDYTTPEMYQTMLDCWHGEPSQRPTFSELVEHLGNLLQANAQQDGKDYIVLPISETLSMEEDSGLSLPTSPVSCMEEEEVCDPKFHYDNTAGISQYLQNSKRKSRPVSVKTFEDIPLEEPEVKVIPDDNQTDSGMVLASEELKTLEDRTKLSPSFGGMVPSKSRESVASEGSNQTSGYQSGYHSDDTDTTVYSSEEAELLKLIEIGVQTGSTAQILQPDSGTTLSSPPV

Turning to `Cn1cc(-c2ccc3c(c2)ncn3-c2cc(NS(=O)(=O)C3CC3)cc(-c3ccc(F)cc3F)c2)cn1` [Comparative example 1, reference compound], it took 62 nM to reach half-maximal inhibition in assay [1] (IC50).

`Cn1cc(-c2ccc3c(-c4cc(NS(=O)(=O)C5CC5)cc(-c5ccc(F)nc5F)c4)cnn3c2)cn1` [Compound 8] registered a 50% inhibitory concentration (IC50) at human FGFR2 of 65.3 nM.

`Cn1cc(-c2ccc3c(-c4cc(NS(C)(=O)=O)nc(-c5ccc(F)cc5F)c4)cnn3c2)cn1` [Compound 12]: the IC50 on human FGFR2 came to 3.74 nM.

Take `CCS(=O)(=O)Nc1cc(-c2cnn3cc(-c4cnn(C)c4)ccc23)cc(-c2ccc(F)cc2F)n1` [Compound 13]: the IC50 on human FGFR2 stood at 2.98 nM.

As to `CS(=O)(=O)Nc1cc(-c2ccc(F)cc2F)cc(-c2cnn3cc(-c4ncn(C5CCOCC5)n4)ccc23)c1` [Compound 15], inhibition against human FGFR2 was half-maximal at 287 nM (IC50).

Molecule `Cc1ncn(-c2ccc3c(-c4cc(NS(=O)(=O)C5CC5)cc(-c5ccc(F)cc5F)c4)cnn3c2)n1` [Compound 16] returned an IC50 at human FGFR2 of 312 nM.

In turn, `CCS(=O)(=O)Nc1cc(-c2ccc(F)cc2F)cc(-c2cnn3cc(-n4cnc(C)n4)ccc23)c1` [Compound 17] registered an IC50 on human FGFR2 of 142 nM.

With `CS(=O)(=O)Nc1cc(-c2ccc(F)cc2F)cc(-c2cnn3cc(-c4ncn(CCO)n4)ccc23)c1` [Compound 18], the IC50 against human FGFR2 turned out to be 256 nM.

Consider `Cc1ncn(-c2ccc3c(-c4cc(NS(C)(=O)=O)cc(-c5ccc(F)cc5F)c4)cnn3c2)n1` [Compound 19], for which the IC50 at human FGFR2 was determined as 88.6 nM.

For `CN(C)CCn1cc(-c2ccc3c(-c4cc(NS(C)(=O)=O)cc(-c5ccc(F)cc5F)c4)cnn3c2)cn1` [Compound 20], the half-maximal inhibitory concentration (IC50) against human FGFR2 was 0.23 nM; in assay [1], 7.5 nM.

Take `CS(=O)(=O)Nc1cc(-c2ccc(F)cc2F)cc(-c2cnn3cc(-c4cnn(CC(O)CO)c4)ccc23)c1` (stereo not drawn) [Compound 22]: the values for the half-inhibitory concentration (IC50) (at human FGFR2; at human VEGFR2; in assay [1]) were 4.38 nM, 1.88 nM and 28.5 nM, respectively.

In the case of `Cn1cc(-c2ccc3c(-c4cc(NC(=O)NC5CC5)cc(-c5ccc(F)cc5F)c4)cnn3c2)cn1` [Compound 23], on human FGFR2, it took 1.88 nM to reach half-maximal inhibition (IC50).

For `CONC(=O)Nc1cc(-c2ccc(F)cc2F)cc(-c2cnn3cc(-c4cnn(C)c4)ccc23)c1` [Compound 24], half-maximal inhibition against human FGFR2 (IC50) required 10.1 nM.

Turning to `Cn1cc(-c2ccc3c(-c4cc(NC(=O)N5CCC(O)C5)cc(-c5ccc(F)cc5F)c4)cnn3c2)cn1` (stereo not drawn) [Compound 25], the IC50 on human FGFR2 was 40.2 nM; at human VEGFR2 it was 22.4 nM.

The molecule `Cn1cc(-c2ccc3c(-c4cc(NS(C)(=O)=O)cc(-c5ccc(F)cc5F)c4)cnn3c2)nn1` [Compound 26] displayed a 50% inhibitory concentration (IC50) in assay [1] of 7.8 nM.

In turn, `Cn1nccc1-c1ccc2c(-c3cc(NS(C)(=O)=O)cc(-c4ccc(F)cc4F)c3)cnn2c1` [Compound 28] registered an IC50 on human FGFR2 of 359 nM.

For `CN1CCC(n2cc(-c3ccc4c(-c5cc(NS(C)(=O)=O)cc(-c6ccc(F)cc6F)c5)cnn4c3)cn2)CC1` [Compound 30], inhibition against human FGFR2 was half-maximal at 0.3 nM (IC50).

In turn, `CC(C)(O)Cn1cc(-c2ccc3c(-c4cc(NS(C)(=O)=O)cc(-c5ncc(F)cc5F)c4)cnn3c2)cn1` [Compound 31] displayed an IC50 against human FGFR2 of 1.79 nM.

As to `CS(=O)(=O)Nc1cc(-c2ncc(F)cc2F)cc(-c2cnn3cc(-c4cnn(CC(O)CO)c4)ccc23)c1` (stereo not drawn) [Compound 34], the IC50 against human FGFR2 was found to be 0.42 nM; against human VEGFR2, 0.29 nM.

Molecule `CS(=O)(=O)Nc1cc(-c2ncc(F)cc2F)cc(-c2cnn3cc(C4CC4)ccc23)c1` [Compound 35] returned a half-inhibitory concentration (IC50) against human FGFR2 of 49.2 nM.

With `CN1CCC(n2cc(-c3ccc4c(-c5cc(NS(C)(=O)=O)cc(-c6ncc(F)cc6F)c5)cnn4c3)cn2)CC1` [Compound 36], half-maximal inhibition against human FGFR2 (IC50) required 0.23 nM.

With `CS(=O)(=O)Nc1cc(-c2ncc(F)cc2F)cc(-c2cnn3cc(-c4cnn(CCN5CCOCC5)c4)ccc23)c1` [Compound 38], the half-maximal inhibitory concentration (IC50) at human FGFR2 stood at 0.72 nM.

With `CS(=O)(=O)Nc1cc(-c2ncc(F)cc2F)cc(-c2cnn3cc(-c4cnn(CC5COCCO5)c4)ccc23)c1` (stereo not drawn) [Compound 39], the concentration for half-maximal inhibition (IC50) against human FGFR2 worked out at 0.95 nM; against human VEGFR2, 0.66 nM.

In the case of `CS(=O)(=O)CCCn1cc(-c2ccc3c(-c4cc(NS(C)(=O)=O)cc(-c5ncc(F)cc5F)c4)cnn3c2)cn1` [Compound 40], the IC50 against human FGFR2 is 0.77 nM; against human VEGFR2, 1.99 nM.

Turning to `Cn1cc(-c2ccc3c(-c4cc(-c5ccc(F)cc5F)cc(NS(C)(=O)=O)n4)cnn3c2)cn1` [Compound 41], it took 1.81 nM to reach half-maximal inhibition against human FGFR2 (IC50).

The molecule `Cn1cc(-c2ccc3c(-c4cc(-c5ccc(F)cc5F)cc(NS(=O)(=O)C5CC5)n4)cnn3c2)cn1` [Compound 42] came in with a 50% inhibitory concentration (IC50) against human FGFR2 of 1.06 nM.

`CCS(=O)(=O)Nc1cc(-c2ccc(F)cc2F)cc(-c2cnn3cc(-c4cnn(C)c4)ccc23)n1` [Compound 43] showed an IC50 against human FGFR2 of 0.47 nM.

In the case of `CS(=O)(=O)Nc1cc(-c2ncc(F)cc2F)cc(-c2cnn3cc(-c4cnn(CC5COCCN5)c4)ccc23)c1` (stereo not drawn) [Compound 44], the results for the IC50 against human FGFR2 and against human VEGFR2 were 0.72 nM and 1.4 nM, respectively.

Turning to `CS(=O)(=O)Nc1cc(-c2ncc(F)cc2F)cc(-c2cnn3cc(-c4cnn(CC5COCCN5Cc5ccccc5)c4)ccc23)c1` (stereo not drawn) [Compound 45], the IC50 against human FGFR2 was 29.6 nM; at human VEGFR2, 11.2 nM.

Take `Cn1cc(-c2ccc3c(-c4cc(NCC5COC(C)(C)O5)cc(-c5ncc(F)cc5F)c4)cnn3c2)cn1` (stereo not drawn) [Compound 48]: the half-inhibitory concentration (IC50) against human FGFR2 worked out at 0.95 nM; against human VEGFR2 it was 8.39 nM.

`Cn1cc(-c2ccc3c(-c4cc(NCC(C)(C)O)cc(-c5ncc(F)cc5F)c4)cnn3c2)cn1` [Compound 49]: half-maximal inhibition at human FGFR2 (IC50) was put at 2.29 nM.

Consider `Cn1cc(-c2ccc3c(-c4cc(NCC(O)CO)cc(-c5ncc(F)cc5F)c4)cnn3c2)cn1` (stereo not drawn) [Compound 50], for which the half-maximal inhibitory concentration (IC50) is 1.05 nM on human FGFR2 and 3.82 nM against human VEGFR2.

In the case of `Cn1cc(-c2ccc3c(-c4cc(NCC5COC(C)(C)O5)cc(-c5ccc(F)cc5F)c4)cnn3c2)cn1` (stereo not drawn) [Compound 52], the IC50 against human FGFR2 was 6.59 nM; against human VEGFR2 it was 21.4 nM.

In the case of `Cn1cc(-c2ccc3c(-c4cc(NCC(O)CO)cc(-c5ccc(F)cc5F)c4)cnn3c2)cn1` (stereo not drawn) [Compound 53], the half-inhibitory concentration (IC50) at human FGFR2 came out at 5.59 nM; against human VEGFR2 it was 3.63 nM.

`Cn1cc(-c2ccc3c(-c4cc(NCC(C)(C)O)cc(-c5ccc(F)cc5F)c4)cnn3c2)cn1` [Compound 54] registered a half-inhibitory concentration (IC50) on human FGFR2 of 10.6 nM.

In the case of `CS(=O)(=O)Nc1cc(-c2ccc(F)cc2F)cc(-c2cnn3cc(-c4cnn(C5CCNCC5)c4)ccc23)c1` [Hydrochloride salt of compound 21], the IC50 on human FGFR2 worked out at 0.57 nM; in assay [1], 9.6 nM.

Turning to `CS(=O)(=O)Nc1cc(-c2ncc(F)cc2F)cc(-c2cnn3cc(-c4cnn(C5CCNCC5)c4)ccc23)c1` [Hydrochloride salt of compound 37], half-maximal inhibition at human FGFR2 (IC50) was put at 0.18 nM.

Molecule `O=S(=O)(Nc1cc(-c2ncc(F)cc2F)cc(-c2cnn3cc(-c4cnn(C5CCNCC5)c4)ccc23)c1)C1CC1` [Hydrochloride salt of compound 47] displayed an IC50 at human FGFR2 of 0.45 nM.

`O=S(=O)(Nc1cc(-c2ccc(F)cc2F)cc(-c2cnn3cc(-c4cnn(C5CCNCC5)c4)ccc23)c1)C1CC1` [Hydrochloride salt of compound 51] came in with an IC50 against human FGFR2 of 1.27 nM.

As to `Cn1cc(-c2ccc3c(-c4cc(NS(=O)(=O)C5CC5)cc(-c5ccc(F)nc5)c4)cnn3c2)cn1` [Trifluoroacetate salt of compound 9], on human FGFR2, 73.3 nM corresponded to half-maximal inhibition (IC50).

As for `Cn1cc(-c2ccc3c(-c4cc(NS(=O)(=O)C5CC5)cc(-c5cccnc5F)c4)cnn3c2)cn1` [Trifluoroacetate salt of compound 10], the midpoint of inhibition on human FGFR2, the IC50, lay at 36.5 nM.

In the case of `Cn1cc(-c2ccc3c(-c4cc(NS(C)(=O)=O)cc(-c5ccc(F)cc5F)c4)cnn3c2)nn1` [Trifluoroacetate salt of compound 26], the values for the half-inhibitory concentration (IC50) on human FGFR2 and against human VEGFR2 were 1.98 nM and 2.74 nM, respectively.

As to `Cn1cnc(-c2ccc3c(-c4cc(NS(C)(=O)=O)cc(-c5ccc(F)cc5F)c4)cnn3c2)c1` [Trifluoroacetate salt of compound 27], the concentration for half-maximal inhibition (IC50) at human FGFR2 is 2.55 nM; in assay [1] it was 11.5 nM.

At human FGFR2, `CS(=O)(=O)Nc1cc(-c2cnn3cc(-c4cnn(CCN5CCOCC5)c4)ccc23)cc(-c2ccc(F)cc2F)n1` [Trifluoroacetate salt of compound 29] displayed an IC50 of 3.98 nM.

As to `Cn1cc(-c2ccc3c(-c4cc(NS(C)(=O)=O)cc(-c5ncc(F)cc5F)c4)cnn3c2)cn1` [Trifluoroacetate salt of compound 32], half-maximal inhibition at human FGFR2 (IC50) was put at 1.09 nM.

Turning to `CCS(=O)(=O)Nc1cc(-c2ncc(F)cc2F)cc(-c2cnn3cc(-c4cnn(C)c4)ccc23)c1` [Trifluoroacetate salt of compound 33], the IC50 is 1.21 nM on human FGFR2 and 6.2 nM in assay [1].

By IC50 is commonly meant the concentration at which inhibition is half-maximal. A high value points to weaker potency.
